According to patent US20160201045A1, “Endo-xylanase and Coding Gene and Use Thereof” (SHANGHAI INSTITUTES FOR BIOLOGICAL SCIENCES CHINESE ACADEMY …, priority 2013, published 2016):

B1: Xyl7R3: fragment of Xyl7 consisting of amino acids 19-272 of SEQ ID NO:2 (protein)
chain: AQGPTWTTSTIQAYNGYDYELWNQNNAGTVSMKLTGDNGSGASAVGGTFTATWSNTQNVLFRSGKKWGSSSNQNHTQIGNMSINFAATWSSTDNVKMLGVYGWAYFTSANVPTKQENGTNASFSNQIEYYIIQDRGSYNPASGGTNAKKYGSATIDGIAYDFYVCDRINQPMLTGNGNFKQFFSVPQSASAHRTSGTISVSQHFNKWHELGMKMDGPLYEVAMKVESYTGSGSSNGSATVTKNLLTIGGTTPTP
modifications: Intestinal tract metagenome of termite
B2: Xyl7R2: fragment of Xyl7 consisting of amino acids 19-267 of SEQ ID NO:2 (protein)
chain: AQGPTWTTSTIQAYNGYDYELWNQNNAGTVSMKLTGDNGSGASAVGGTFTATWSNTQNVLFRSGKKWGSSSNQNHTQIGNMSINFAATWSSTDNVKMLGVYGWAYFTSANVPTKQENGTNASFSNQIEYYIIQDRGSYNPASGGTNAKKYGSATIDGIAYDFYVCDRINQPMLTGNGNFKQFFSVPQSASAHRTSGTISVSQHFNKWHELGMKMDGPLYEVAMKVESYTGSGSSNGSATVTKNLLTIGG
modifications: Intestinal tract metagenome of termite

Experiments:
Xyl7 = experiment: Effect of different chemical agents and metal ions on the enzymatic activity of Xyl7; assay type: biochemical, microorganisms in termite gut; conditions: for Relative Activity (%) of Xyl7: Metal Ion or Chemical Agent 10 mM, enzyme without agent = 100%; for action on Xyl7 (in words) / increase for the activity of the enzyme: 10 mmol/L
Description: (§1) In a 100 μl reaction system, birch xylan was added to a final concentration of 1% (w/w), and Na2HPO4/NaH2PO4 buffer (pH7.0) was added to a final concentration of 100 mM. A suitable amount of enzyme solution diluted by the abovementioned buffer was added to the reaction system for reaction at 50[…] for 10 minutes. 100 μl DNS were added to stop the reaction. For the control, 100 μl DNS were firstly added to the above reaction system before adding the enzyme solution. The reaction mixtures were subjected to a boiled water bath for 5 minutes to develop color. Absorbance value at 540 nm was detected by a microplate reader. After subtracting the absorbance value of the control from that of the sample, the enzymatic activity unit (U) was calculated based on the standard curve.
Various compounds were added into the reaction system to a final concentration of 10 mmol/L. Enzymatic activity was tested according to the above standard enzymatic activity detection steps. The specific activity value of the enzyme without treated by any chemical agent or metal ion was used as a reference value and its relative activity was defined as 100%.

[1] = Standard enzymatic activity detection (DNS method) on birch xylan; assay type: biochemical; conditions: standard steps: 1% birch xylan, pH7.0, 50, 10 minutes
Description: Enzymatic activity of the endo-1,4-β-xylanase was tested by a DNS method as follows:
10 g NaOH were weighed and dissolved in about 400 ml ddH2O. 10 g dinitrosalicylic acid, 2 g phenol, 0.5 g anhydrous sodium sulfite and 200 g potassium sodium tartrate tetrahydrate were weighed and dissolved in about 300 ml ddH2O. The two solutions were mixed, diluted to 1 liter and preserved in dark.
100 μl DNS were added into each of the above standard samples. The mixtures were subjected to boiled water bath for 5 minutes for developing color. Absorbance value at 540 nm was detected by a microplate reader. Standard sample 1 was a blank control. The absorbance value of the blank control was subtracted from that of each sample and then the standard curve was plotted.
as §1
Definition of enzymatic activity unit (U): 1U refers to the amount of enzyme required for catalytically hydrolyzing xylan to produce 1 μmol xylose.
Definition of specific activity unit: enzymatic activity of 1 mg protein (U/mg).
Various substrates with a final concentration of 2% (w/w) were treated by a suitable amount of enzymes at pH7.0 and 50[…] for 10 minutes. Enzymatic activity was tested according to the above standard enzymatic activity detection steps. […] No detectable enzymatic activity was found for the other test substrates. […]

[2] = Detection on the optimum temperature; assay type: biochemical; conditions: compared with Xyl7
Description: as §1
Enzymatic activity was detected according the above standard enzymatic activity detection steps at pH 7.0 and a temperature in the range of 25-80° C. The optimum temperature of Xyl7 was in the range of 50-55° C., with an activity at 50[…] slightly higher than that at 55[…]. Thus, the specific activity value of the enzyme at 50[…] was used as a reference value and its relative activity was defined as 100%. The relative activity of the enzyme at each temperature was a ratio between the specific activity value of the enzyme at each temperature and the reference value.

| Molecule | Relative Activity (%) of Xyl7 (Xyl7) [%] | action on Xyl7 (in words) (Xyl7) | other results |
| --- | --- | --- | --- |
| [Ba+2] [Ba^2+] | 90.71 ± 1.94 |  |  |
| [Zn+2] [Zn^2+] | 64.88 ± 1.36 | obviously inhibited |  |
| [Mn+2] [Mn^2+] | 125.73 ± 7.8 | could activate | increase for the activity of the enzyme (Xyl7): about 20% |
| [Co+2] [Co^2+] | 109.14 ± 3.45 | could activate |  |
| [Al+3] [Al^3+] | 77.68 ± 2.32 |  |  |
| [Ni+2] [Ni^2+] | 44.25 ± 4.98 | obviously inhibited |  |
| [Fe+2] [Fe^2+] | 25.33 ± 0.46 | obviously inhibited | Relative Activity (%) of Xyl7 (Xyl7; listed as Fe^3+): 90.41 ± 3.36% |
| [Ca+2] [Ca^2+] | 90.1 ± 12.82 |  |  |
| [Cu+2] [Cu^2+] | 108.69 ± 2.99 | could activate |  |
| [Mg+2] [Mg^2+] | 101.53 ± 3.02 | no obvious action |  |
| [K+] [K^+] | 125.6 ± 11.98 | could activate | increase for the activity of the enzyme (Xyl7): about 20% |
| O=C(O)CN(CCN(CC(=O)O)CC(=O)O)CC(=O)O [EDTA] | 88.65 ± 1.62 | obviously inhibited |  |
| B1 |  |  | specific activity by the standard enzymatic activity detection steps of Example 3 [1]: 8775 U/mg; optimum temperature and tolerance on temperature [2]: almost identical to those of Xyl7 |
| B2 |  |  | specific activity by the standard enzymatic activity detection steps of Example 3 [1]: 8560 U/mg |
